In brackets after ≈: the same amount, converted by molar mass.

The assay has as its system Candida albicans. Nature of the assay: In vitro antifungal activity test (MIC), Candida albicans. Format: cell-based. The settings on record: Candida albicans; concentration at which growth is inhibited by 80% vs negative control; 35° C., 24 hours, RPMI 1640, alama blue. The procedure: The antifungal activities of the compounds of the present invention were evaluated using Candida albicans as yeast fungus, and Aspergillus fumigatus as a filamentous fungus. The above fungi used were all purchased from American Type Culture Collection (ATCC). The strains used in the experiment were inoculated into a Sabouraud dextrose agar medium, and then cultured at 35° C. for a sufficient period of time, e.g., 24 hours for Candida albicans, and about 7 days for Aspergillus fumigatus. As for Candida albicans, about 5 to 7 single colonies were taken from the cultured medium, sufficiently suspended in 1 ml of 0.85% sterile saline solution, and adjusted to have an optical density of 0.095 to 0.107 at 530 nm. A preparation of a strain diluent was diluted in Roswell park memorial institute (RPMI) 1640 medium at a 1:10 ratio, and the resultant was diluted again at a 1:100 ratio to obtain an inoculation preparation for Candida albicans with a concentration of 1.0×10^3 to 5.0×10^3 CFU/mL. As for Aspergillus fumigatus, the cultured Sabouraud dextrose agar was added with 1 mL of 0.2% Tween 20 diluted with 0.85% sterile saline solution, and then the plate was shaken to detach conidium from the plate. The solution collected from the plate surface was transferred into a sterile tube, and placed at room temperature for 5 minutes to deposit heavy substances. The resulting supernatant was transferred into the sterile tube, sufficiently suspended for about 15 seconds, and prepared a strain diluent with a concentration of 0.4×10^6 to 5.0×10^6 CFU/mL using a hemocytometer. The thus prepared strain diluent was diluted in RPMI 1640 medium at a 1:100 ratio to obtain an inoculation preparation for Aspergillus fumigatus. Candida albicans was cultured at 35° C. for 24 hours and Aspergillus fumigatus was cultured at 35° C. for 48 hours, and the concentrations, at which growth is inhibited by 80% or 50% compared to a negative control group, were determined using alama blue color developing reagent. All experiments were repeated twice for each concentration, and the results of antifungal activities (MIC80 MIC50 μg/mL) are shown in Tables 1 to 2.
Consider `Cn1cc(C(=O)NNc2ccc(F)cc2)ccc1=O` [Example 3, N′-(4-fluorophenyl)-1-methyl-6-oxo-1,6-dihydropyridine-3-carbohydrazide], for which the MIC80 (commonly an inhibitory concentration at the 80% level, which refers to growth in some studies and to a panel of isolates in others) was 0.1 µg/mL (≈ 0.383 µM). The result for `Cn1cc(C(=O)NNc2cccc(Cl)c2)ccc1=O` [Example 4, N′-(3-chlorophenyl)-1-methyl-6-oxo-1,6-dihydropyridine-3-carbohydrazide] reads 0.11 µg/mL (≈ 0.396 µM); that for `Cn1cc(C(=O)NNc2ccc(Cl)cc2)ccc1=O` [Example 5, N′-(4-chlorophenyl)-1-methyl-6-oxo-1,6-dihydropyridine-3-carbohydrazide], 0.05 µg/mL (≈ 0.18 µM); that for `Cn1cc(C(=O)NNc2cccc(C#N)c2)ccc1=O` [Example 6, N′-(3-cyanophenyl)-1-methyl-6-oxo-1,6-dihydropyridine-3-carbohydrazide], 0.1 µg/mL (≈ 0.373 µM). The result for `Cn1cc(C(=O)NNc2ccc(C#N)cc2)ccc1=O` [Example 7, N′-(4-cyanophenyl)-1-methyl-6-oxo-1,6-dihydropyridine-3-carbohydrazide] reads 0.84 µg/mL (≈ 3.13 µM). The result for `Cn1cc(C(=O)NNc2cccc(C(F)(F)F)c2)ccc1=O` [Example 8, 1-methyl-6-oxo-N′-(3-(trifluoromethyl)phenyl)-1,6-dihydropyridine-3-carbohydrazide] reads 0.24 µg/mL (≈ 0.771 µM); that for `Cn1cc(C(=O)NNc2ccc(C(F)(F)F)cc2)ccc1=O` [Example 9, 1-methyl-6-oxo-N′-(4-(trifluoromethyl)phenyl)-1,6-dihydropyridine-3-carbohydrazide], 1.95 µg/mL (≈ 6.26 µM); that for `Cn1cc(C(=O)NNc2ccc(F)c(F)c2)ccc1=O` [Example 12, N′-(3,4-difluorophenyl)-1-methyl-6-oxo-1,6-dihydropyridine-3-carbohydrazide], 0.22 µg/mL (≈ 0.788 µM). In the case of `Cn1cc(C(=O)NNc2ccc(Cl)c(Cl)c2)ccc1=O` [Example 14, N′-(3,4-dichlorophenyl)-1-methyl-6-oxo-1,6-dihydropyridine-3-carbohydrazide], the MIC80 was found to be 0.06 µg/mL (≈ 0.192 µM). The result for `Cn1cc(C(=O)NNc2ccc(F)c(Cl)c2)ccc1=O` [Example 17, N′-(3-chloro-4-fluorophenyl)-1-methyl-6-oxo-1,6-dihydropyridine-3-carbohydrazide] reads 0.12 µg/mL (≈ 0.406 µM); that for `Cn1cc(C(=O)NNc2ccc(F)nc2F)ccc1=O` [Example 19, N′-(2,6-difluoropyridine-3-yl)-1-methyl-6-oxo-1,6-dihydropyridine-3-carbohydrazide], 0.88 µg/mL (≈ 3.14 µM). The value for `Cc1nc(F)ccc1NNC(=O)c1ccc(=O)n(C)c1` [Example 20, N′-(6-fluoro-2-methylpyridine-3-yl)-1-methyl-6-oxo-1,6-dihydropyridine-3-carbohydrazide] was 0.22 µg/mL (≈ 0.796 µM); that for `Cn1cc(C(=O)NNc2cccc(F)c2)c(Cl)cc1=O` [Example 22, 4-chloro-N′-(3-fluorophenyl)-1-methyl-6-oxo-1,6-dihydropyridine-3-carbohydrazide] was 0.23 µg/mL (≈ 0.778 µM). The value for `Cn1cc(C(=O)NNc2ccc(F)cc2)c(Cl)cc1=O` [Example 23, 4-chloro-N′-(4-fluorophenyl)-1-methyl-6-oxo-1,6-dihydropyridine-3-carbohydrazide] was 0.46 µg/mL (≈ 1.56 µM); that for `Cn1cc(C(=O)NNc2ccc(F)cc2)cc(Cl)c1=O` [Example 25, 5-chloro-N′-(4-fluorophenyl)-1-methyl-6-oxo-1,6-dihydropyridine-3-carbohydrazide] was 0.23 µg/mL (≈ 0.778 µM); that for `Cn1cc(C(=O)NNc2ccc(Cl)cc2)cc(Cl)c1=O` [Example 27, 5-chloro-N′-(4-chlorophenyl)-1-methyl-6-oxo-1,6-dihydropyridine-3-carbohydrazide] was 0.49 µg/mL (≈ 1.57 µM). `Cn1cc(C(=O)NNc2cccc(C#N)c2)cc(Cl)c1=O` [Example 28, 5-chloro-N′-(3-cyanophenyl)-1-methyl-6-oxo-1,6-dihydropyridine-3-carbohydrazide] returned an MIC80 of 0.12 µg/mL (≈ 0.396 µM). The result for `Cn1cc(C(=O)NNc2ccc(C#N)cc2)cc(Cl)c1=O` [Example 29, 5-chloro-N′-(4-cyanophenyl)-1-methyl-6-oxo-1,6-dihydropyridine-3-carbohydrazide] reads 0.47 µg/mL (≈ 1.55 µM).

On to `Cn1cc(C(=O)NNc2ccc(F)cc2F)cc(Cl)c1=O` [Example 30, 5-chloro-N′-(2,4-difluorophenyl)-1-methyl-6-oxo-1,6-dihydropyridine-3-carbohydrazide], for which the MIC80 was 0.31 µg/mL (≈ 0.988 µM). The result for `Cn1cc(C(=O)NNc2ccc(F)c(F)c2)cc(Cl)c1=O` [Example 31, 5-chloro-N′-(3,4-difluorophenyl)-1-methyl-6-oxo-1,6-dihydropyridine-3-carbohydrazide] reads 0.06 µg/mL (≈ 0.191 µM).

`Cn1cc(C(=O)NNc2cc(F)cc(F)c2)cc(Cl)c1=O` [Example 32, 5-chloro-N′-(3,5-difluorophenyl)-1-methyl-6-oxo-1,6-dihydropyridine-3-carbohydrazide] displayed an MIC80 of 0.03 µg/mL (≈ 0.0956 µM).

Regarding `Cn1cc(C(=O)NNc2cccc(F)c2)c(Nc2ccc(C(F)(F)F)cc2)cc1=O` [Example 35, N′-(3-fluorophenyl)-1-methyl-6-oxo-4-((4-(trifluoromethyl)phenyl)amino)-1,6-dihydropyridine-3-carbohydrazide], the MIC80 turned out to be 0.16 µg/mL (≈ 0.381 µM).

`Cn1cc(C(=O)NNc2ccc(F)cc2)c(Nc2ccc(C(F)(F)F)cc2)cc1=O` [Example 36, N′-(4-fluorophenyl)-1-methyl-6-oxo-4-((4-(trifluoromethyl)phenyl)amino)-1,6-dihydropyridine-3-carbohydrazide]: the MIC80 came out at 1.31 µg/mL (≈ 3.12 µM).

For the compound `Cn1cc(C(=O)NNc2cccc(F)c2)cc(-c2ccccn2)c1=O` [Example 41, N′-(3-fluorophenyl)-1-methyl-6-oxo-5-(pyridine-2-yl)-1,6-dihydropyridine-3-carbohydrazide], the MIC80 worked out at 0.07 µg/mL (≈ 0.207 µM). Compound `O=C(NNc1cccc(F)c1)c1ccc(=O)n(-c2ccccc2F)c1` [Example 42, 1-(2-fluorophenyl)-N′-(3-fluorophenyl)-6-oxo-1,6-dihydropyridine-3-carbohydrazide] came in with an MIC80 of 0.07 µg/mL (≈ 0.205 µM). The result for `O=C(NNc1cccc(F)c1)c1ccc(=O)n(-c2cccc(F)c2)c1` [Example 43, N′,1-Bis(3-fluorophenyl)-6-oxo-1,6-dihydropyridine-3-carbohydrazide] reads 0.13 µg/mL (≈ 0.381 µM). Regarding `O=C(NNc1cccc(F)c1)c1ccc(=O)n(-c2ccc(F)cc2)c1` [Example 44, N′-(3-fluorophenyl)-1-(4-fluorophenyl)-6-oxo-1,6-dihydropyridine-3-carbohydrazide], the MIC80 amounted to 0.13 µg/mL (≈ 0.381 µM). The result for `O=C(NNc1ccc(F)cc1)c1ccc(=O)n(-c2ccc(C(F)(F)F)cc2)c1` [Example 45, N′-(4-fluorophenyl)-6-oxo-1-(4-(trifluoromethyl)phenyl)-1,6-dihydropyridine-3-carbohydrazide] reads 0.61 µg/mL (≈ 1.56 µM); that for `O=C(NNc1ccc(F)cc1)c1ccc(=O)n(-c2cccc(C(F)(F)F)c2)c1` [Example 46, N′-(4-fluorophenyl)-6-oxo-1-(3-(trifluoromethyl)phenyl)-1,6-dihydropyridine-3-carbohydrazide], 0.31 µg/mL (≈ 0.792 µM); that for `O=C(NNc1ccc(F)cc1)c1ccc(=O)n(-c2cccc(Cl)c2)c1` [Example 47, 1-(3-chlorophenyl)-N′-(4-fluorophenyl)-6-oxo-1,6-dihydropyridine-3-carbohydrazide], 0.56 µg/mL (≈ 1.57 µM).

For the origin of these results see patent US9617216B2, “Antifungal oxodihydropyridinecarbohydrazide derivative” (Daewoong Pharmaceutical Co., Ltd., priority 2013, dated 2017).
